Data as given in patent publication US12358921B2, “Antiviral heterocyclic compounds” (priority 2022, dated 2025).

Assays:
[1] = test system: HUMAN RSV-A (“LONG” STRAIN); assay: RSV-A assay (CPE, ATPlite) in Hep-2 cells; assay type: cell-based; conditions: human respiratory syncytial virus, 120 h, MOI 0.1, 5-day incubation
From the text: Methods for RSV-A Assay Hep-2 cells, (originally derived from tumors grown in irradiated-cortisonised weanling rats that had been injected with epidermoid carcinoma tissue from the larynx of a person, but later found to be indistinguishable from HeLa cells by PCR DNA analysis), were used for the culturing of genotype A, “Long” strain RSV. Flasks were inoculated with RSV and viral stocks were collected once cytopathic effect (CPE) was greater than 90%. Viral stocks in 25% sucrose media were snap frozen using liquid nitrogen to increase viral stability. Viral stock titers were quantified by tissue culture infectious dose 50% (TCID50) using 8,000 cells per well and 3-fold viral dilutions across a 96-well plate, cultured for 4 days. Viral stock titers were also quantified by a plaque forming unit assay, as described elsewhere.
Following extensive parameter testing, the final assay is run as follows: Hep-2 cells are seeded into the inner 60 wells of a 96-well plate at 8,000 cells per well in a volume of 50 μL using Growth Media (DMEM without phenol red, 1% L-Glut, 1% Penn/Strep, 1% nonessential amino acids, 10% heat-inactivated FBS). 2-fold serial dilutions of control and test compounds are added to the wells in duplicate in a total volume of 25 μL. Viral stock is then added to the wells at a multiplicity of infection (MOI) of 0.1 in a volume of 25 μL, bringing the total volume of each well to 100 μL. The MOI is calculated using the PFU/mL, or TCID50 if unavailable. Each 96-well plate has a control column of 6 wells with cells and virus but no compound (negative control, max CPE), a column with cells but no compound or virus (positive control, minimum CPE), and a column with no cells or virus or compound (background plate/reagent control). The control wells with cells but no virus are given an additional 25 μL of growth media containing an equal quantity of sucrose as those wells receiving the viral stock in order to keep consistent in media and volume conditions. The outer wells of the plate are filled with 125 μL of moat media (DMEM, 1% Penn/Strep) to act as a thermal and evaporative moat around the test wells. Following a 5-day incubation period, the plates are read using ATPlite (50 uL added per well), which quantifies the amount of ATP (a measure of cell health) present in each well. Assay plates are read using the Envision luminometer. […] EC50 ranges are as follows: A<0.2 μM; B>0.2 μM.

hMPV A2 TN/94-49 = assay: HMPV antiviral assay Method 2 (LLC-MK2 cells with CP-100-356, ATP-Lite); assay type: cell-based; conditions: hMPV A2 TN/94-49, LLC-MK2 cells, 4 μM CP-100-356, Method 2
Protocol: In vitro HMPV antiviral activity was evaluated using the clinical isolate A2 strain TN 94-49 (obtained from Dr. John Williams, Vanderbilt University, Tennessee) and LLC-MK2 cells (Millipore Sigma CB_85062804), an immortalized kidney epithelial cell line from Macaca mulatta. Compounds were resuspended in dimethyl sulfoxide (DMSO) at 10 mM, serially diluted and added to a 384-well source plate. Subsequently, the compounds were diluted and transferred onto 384-well assay plates using the Echo-650 automated liquid handling system (Beckman Coulter, Indiana). The test compounds were assessed in duplicate at a top concentration of 200 nM followed by 2.5-fold serial dilutions to give a total of 10 concentration points. DMSO control wells were also included on the assay plates and were either infected or not, acting as positive and negative controls. A2 TN 94-49 virus infections were performed in-suspension with LLC-MK2 cells. The cells were washed twice with PBS and removed from the cell-culture flask with 0.25% trypsin-EDTA (Thermo Fisher Scientific, MA). The trypsin-EDTA was inactivated by resuspending in 2% fetal bovine serum (FBS) and OptiMEM (ThermoFisher Scientific, MA) containing 1% antibiotic-antimycotic. Cells were pelleted by centrifuging for 5 minutes at 800 rpm, the supernatant was removed, and cells were re-suspended and washed in PBS plus 100 μg/mL CaCl2). This step was performed twice. Cells were then re-suspended in serum-free (SF)-OptiMEM containing 4 μg/mL TPCK-Trypsin (Sigma Aldrich, MO), 1% antibiotic-antimycotic (ThermoFisher Scientific, MA), 100 μg/mL CaCl2), and 4 μM of CP-100-356, a P-glycoprotein inhibitor. Cells were counted and seeded at a density of 5,000 cells/well, 12.5 μL/well. Virus infections were done at a multiplicity of infection (MOI) of 0.16 with 12.5 μL added per well. Virus infections were performed in infection media which contained SF-OptiMEM, 100 μg/mL CaCl2) and 1% antibiotic-antimycotic. HMPV viral stocks are suspended in infection media+5% glycerol, thus an equal volume of infection media+5% glycerol was added to uninfected wells to equalize the final % glycerol across all wells of the assay plate. The final concentration of TPCK-trypsin was 2 μg/mL. The final concentration of CP-100-356 was 2 μM. The assay plates were incubated at 37° C., 5% CO2 for 7 days. After 7 days incubation, 12.5 μL of ATP-Lite (PerkinElmer, MA) was added to each well and the raw luminescence values were determined using the Envision 2104 (Perkin Elmer, MA). The average of the raw luminescence values for the cells and virus only positive control wells was subtracted from all conditions tested and the percent cell health was determined by dividing these values by the average of the cells only negative control wells. EC50 values were then calculated by non-linear regression using a four-parameter curve logistic equation. The curve fit model employed was XLFit Dose Response One Site Model 200: y=(A+(B/(1+((x/C)^D)))), where A is the minimum y value, B is the maximum y value, C is the log EC50value, and D is the slope factor.

| SMILES | EC50 [1] | EC50 (hMPV A2 TN/94-49) |
| --- | --- | --- |
| COc1cc(C(=O)NC[C@@](O)(c2cccc(F)n2)c2cc3c(c(-c4cc(Cl)c(F)cc4F)n2)OC[C@]3(C)C(N)=O)cc2cn(C3CC3)nc12 [Example 203] | < 200 nM | < 200 nM |
| COc1cc(C(=O)NC[C@@](O)(c2ccccc2)c2cc3c(c(-c4cc(Cl)c(F)cc4F)n2)OC[C@]3(C)C(N)=O)cc2cc(Cl)nnc12 [Example 113] | < 200 nM | < 200 nM |
| COc1cc(C(=O)NC[C@@](O)(c2cccc(C(C)=O)c2)c2cc3c(c(-c4cccc(Cl)c4Cl)n2)OC[C@]3(C)C(N)=O)cc2cn(C3CC3)nc12 [Example 493] | < 200 nM | < 200 nM |
| COc1cc(C(=O)NC[C@@](O)(c2ccc(S(C)(=O)=O)cc2)c2cc3c(c(-c4cc(Cl)c(F)cc4F)n2)OC[C@]3(C)C(N)=O)cc2cn(C3CC3)nc12 [Example 482] | < 200 nM | > 200 nM |
| Cc1nc2ccc(C(=O)NC[C@@](O)(c3ccccc3)c3cc4c(c(-c5cc(F)c(F)cc5F)n3)OC[C@]4(C)C(N)=O)cc2o1 [Example 192] | < 200 nM | < 200 nM |
| COc1cc(C(=O)NC[C@@](O)(c2ccccc2)c2cc3c(c(-c4cc(C(F)(F)F)c(F)cc4F)n2)OC[C@]3(C)C(N)=O)cc2cn(C(F)F)nc12 [Example 304] | < 200 nM | < 200 nM |
| COc1cc(C(=O)NC[C@@](O)(c2ccccc2)c2cc3c(c(-c4ccc(F)c(F)c4Cl)n2)OC[C@]3(C)C(N)=O)cc2cn(C3(F)CC3)nc12 [Example 370] | < 200 nM | < 200 nM |
| COc1cc(-c2nc([C@@](O)(CNC(=O)c3cc(OC)c4nn(C5(F)CC5)cc4c3)c3ccccc3)cc3c2OC[C@]3(C)C(N)=O)c(F)cc1F [Example 364] | < 200 nM | > 200 nM |
| COc1cc(C(=O)NC[C@](O)(c2cccc(F)c2)c2cc3c(c(-c4cc(F)c(F)cc4C(N)=O)n2)OC[C@]3(C)C(N)=O)cc2cn(C3(F)CC3)nc12 [Example 406] | > 200 nM | > 200 nM |
| COc1cc(C(=O)NC[C@@](O)(c2ccccc2)c2cc3c(c(-c4cc(Cl)c(F)cc4F)n2)OC[C@]3(C)C(N)=O)cc2cc(Cl)c(F)nc12 [Example 342] | < 200 nM | > 200 nM |
| C[C@]1(C(N)=O)COc2c1cc([C@@](O)(CNC(=O)c1ccc3nn(C4CC4)cc3c1)c1ccccc1)nc2-c1cc(Cl)c(F)cc1F [Example 101] | < 200 nM | < 200 nM |
| COc1cc(C(=O)NC[C@@](O)(c2cccc(F)n2)c2cc3c(c(-c4cc(Cl)c(F)cc4F)n2)OC[C@]3(C)C(N)=O)cc2cn(C(F)F)nc12 [Example 205] | < 200 nM | < 200 nM |
| COc1cc(C(=O)NC[C@@](O)(c2cccc(F)c2)c2cc3c(c(-c4cccc(Cl)c4Cl)n2)OC[C@]3(C)C(N)=O)cc2cc(C3CC3)nn12 [Example 336] | < 200 nM | < 200 nM |
| COc1cc(C(=O)NC[C@](O)(c2cc3c(c(-c4cc(Cl)c(F)cc4F)n2)OC[C@]3(C)C(N)=O)c2nccn2C)cc2cn(C3CC3)nc12 [Example 464] | > 200 nM | > 200 nM |
| COc1cc(C(=O)NC[C@@](O)(c2ccccc2)c2cc3c(c(-c4cc(C(F)(F)F)c(F)cc4F)n2)OC[C@]3(C)C(N)=O)cc2cn(C3CC3)nc12 [Example 302] | < 200 nM | < 200 nM |
| COc1cc(C(=O)NC[C@@](O)(c2ccccc2)c2cc3c(c(-c4cc(F)c(F)cc4F)n2)OC[C@]3(C)C(N)=O)cc2oc(C)nc12 [Example 193] | < 200 nM | < 200 nM |

| SMILES | EC50 [1] | EC50 (hMPV A2 TN/94-49) |
| --- | --- | --- |
| COc1cc(C(=O)NC[C@@](O)(c2ccccc2)c2cc3c(c(-c4cccc(Cl)c4F)n2)OC[C@]3(C)C(N)=O)cc2cn(C3(F)CC3)nc12 [Example 369] | < 200 nM | < 200 nM |
| COc1cc(C(=O)NC[C@@](O)(c2cccc(S(C)(=O)=O)c2)c2cc3c(c(-c4cc(Cl)c(F)cc4F)n2)OC[C@]3(C)C(N)=O)cc2cn(C3CC3)nc12 [Example 483] | < 200 nM | < 200 nM |
| C[C@]1(C(N)=O)COc2c1cc([C@@](O)(CNC(=O)c1cc(F)c3nn(C4CC4)cc3c1)c1ccccc1)nc2-c1cc(Cl)c(F)cc1F [Example 100] | < 200 nM | < 200 nM |
| COc1cc(C(=O)NC[C@@](O)(c2cccc(F)n2)c2cc3c(c(-c4cc(Cl)c(F)cc4F)n2)OC[C@]3(C)C(N)=O)cc2cc(C3CC3)nn12 [Example 206] | < 200 nM | < 200 nM |
| COc1cc(C(=O)NC[C@](O)(c2cc3c(c(-c4cc(Cl)c(F)cc4F)n2)OC[C@]3(C)C(N)=O)c2ccnn2C)cc2cn(C3CC3)nc12 [Example 481] | – | < 200 nM |
| C[C@]1(C(N)=O)COc2c1cc([C@@](O)(CNC(=O)c1cc(OC3CC3)n3nc(C4CC4)cc3c1)c1cccc(F)c1)nc2-c1cccc(Cl)c1Cl [Example 335] | – | < 200 nM |
| C[C@]1(C(N)=O)COc2c1cc([C@@](O)(CNC(=O)c1ccc3nc(C4CC4)oc3c1)c1ccccc1)nc2-c1cc(F)c(F)cc1F [Example 194] | – | < 200 nM |
| C[C@]1(C(N)=O)COc2c1cc([C@@](O)(CNC(=O)c1cc(OC3CC3)n3nc(C4CC4)cc3c1)c1ccccc1)nc2-c1cc(Cl)c(F)cc1F [Example 191] | – | < 200 nM |
| C[C@]1(C(N)=O)COc2c1cc([C@@](O)(CNC(=O)c1ccc3nc(C4CC4)oc3c1)c1ccccc1)nc2-c1ccc2c(c1)OC(F)(F)O2 [Example 199] | – | > 200 nM |
| COc1cc(C(=O)NC[C@@](O)(c2ccnc(F)c2)c2cc3c(c(-c4cccc(Cl)c4Cl)n2)OC[C@]3(C)C(N)=O)cc2cn(C3CC3)nc12 [Example 492] | – | < 200 nM |
| COc1cc(C(=O)NC[C@@](O)(c2cnoc2)c2cc3c(c(-c4cc(Cl)c(F)cc4F)n2)OC[C@]3(C)C(N)=O)cc2cn(C3CC3)nc12 [Example 491] | – | < 200 nM |
| C[C@]1(C(N)=O)COc2c1cc([C@@](O)(CNC(=O)c1ccc3nc(C4CC4)oc3c1)c1ccccc1)nc2-c1cc(C(F)F)c(F)cc1F [Example 311] | – | < 200 nM |
| C[C@]1(C(N)=O)COc2c1cc([C@@](O)(CNC(=O)c1cc(OC3CC3)c3nc(C4CC4)sc3c1)c1ccccc1)nc2-c1cc(Cl)c(F)cc1F [Example 190] | – | > 200 nM |
| C[C@]1(C(N)=O)COc2c1cc([C@@](O)(CNC(=O)c1cc(OC3CC3)c3ncc(Cl)cc3c1)c1cccc(F)c1)nc2-c1cccc(Cl)c1Cl [Example 334] | – | < 200 nM |
| CC(C)c1nc2ccc(C(=O)NC[C@@](O)(c3ccccc3)c3cc4c(c(-c5cc(Cl)c(F)cc5F)n3)OC[C@]4(C)C(N)=O)cc2o1 [Example 224] | – | > 200 nM |
